For 102 compounds, cytotoxicity results are on record in ChEMBL document CHEMBL3507680, “University of Dundee, Gates Library screen for HepG2 cell viability”.

The structures appear in SMILES notation.

The data set can be described thus: Human HepG2 cell viability assay in 384 well format. It counts as toxicity, cell-based. The arrangement: dose 125 nL, time 70.5 hour; cytotoxicity at 70.5 h: concentration not given beside the values. The settings on record: HepG2 cells, read-out: Inhibition.
On to `CCC(CC)C(=O)c1c[nH]c(C(=O)N2CCN(c3ccccc3)CC2)c1`, for which the cytotoxicity at 70.5 h was -3.31%.
For the compound `N#Cc1c(Cl)nsc1NCCN1CCOCC1`, the cytotoxicity at 70.5 h was -10.1%.
The figure for `Cc1cc(C(=O)NCc2ccc(-c3n[nH]cc3C(=O)N(C)C)cc2)on1` is -2.38%; for `CN(C)c1ncc(C(=O)N2C[C@H]3C[C@H](Oc4ccccc4)C[C@H]3C2)cn1` it is -0.787%.
In the case of `c1ccc(CCN2CCCC(c3ccnc4nccn34)C2)cc1` (configuration not stated), the cytotoxicity at 70.5 h is -1.37%.
The figure for `Cc1cc(C(F)(F)F)nc(C2CCCN2S(C)(=O)=O)n1` (configuration not stated) is 1.14%; for `CCOCCN1CCC(c2cnccn2)CC1` it is 21.8%; for `CN1CCN(CC2(O)CCN(C(=O)CCc3ccccc3F)C2)CC1` (configuration not stated) it is 1.21%.
For the compound `CO[C@H]1C[C@@H]2CN(C(=O)c3n[nH]c4c3CCCC4)C[C@@H]2C1`, the cytotoxicity at 70.5 h was 11%.
Consider `NC(=O)c1sc2ccccc2c1C1CCN(S(=O)(=O)N2CCOCC2)C1` (configuration not stated), for which the cytotoxicity at 70.5 h worked out at 1.58%.
For `CCN(CC)S(=O)(=O)NCc1ccc(-c2ccc(C(N)=O)c(C)n2)cc1`, the cytotoxicity at 70.5 h is -12.3%.
For `O=S1(=O)NC(c2ccnc(N3CCOCC3)n2)=Nc2ccccc21`, the cytotoxicity at 70.5 h was -9.53%.
Take `O=S1(=O)NC(c2ccnc(N3CCCC3)n2)=Nc2ccccc21`: the cytotoxicity at 70.5 h was -3.65%.
Then `COc1ccc2c(c1)c(-c1nc(N(C)C)ncc1CN)cn2C`, with 12.9%; and `Oc1cc(-c2nccs2)nc(C2CCN(Cc3cccs3)CC2)n1`, with -8.93%.
Then `CNc1ncccc1CN1CCC1c1cc(N)nc(C)n1` (configuration not stated), with 12.5%; and `O=C(c1cc(-n2cccn2)ccc1Cl)N1CCCC(N2CCCC2)C1` (configuration not stated), with -5.55%.
Then `CCNC(=O)C1(Cc2cc(-c3ccccc3)no2)CCCN(C)C1` (configuration not stated), with -5.43%; and `Cc1nnc(N2CCOC(C)(C(=O)NC3CCCC3)C2)c2ccccc12` (configuration not stated), with -3.81%.
Turning to `Cc1cc(-c2nccs2)nc(C2CCN(Cc3cccs3)CC2)n1`, the cytotoxicity at 70.5 h is -5.42%.
`COCCCNc1ncc(-c2cccc(F)c2)c(-c2nccn2C)n1`: the cytotoxicity at 70.5 h was -6.45%.
On to `O=C(CC1CCN(c2cccnn2)CC1)Nc1nncs1`, for which the cytotoxicity at 70.5 h was -5.72%.
As for `OC1(CN2CCC(Cc3ncccn3)CC2)CCOCC1`, the cytotoxicity at 70.5 h was determined as 13.1%.
Regarding `Cc1nc(N)cc(C2CCN2CCOc2ccccc2)n1` (configuration not stated), the cytotoxicity at 70.5 h was -6.55%.
`Cc1nc(NC2CCCC2)cc(C2CCN2c2ncccn2)n1` (configuration not stated): the cytotoxicity at 70.5 h was -5.59%.
The figure for `CNC(=O)C1CN(c2ccnc(C)n2)CCN1Cc1ccccc1` (configuration not stated) is -3.79%.
Take `Cc1nc(C(=O)N2CCCC2c2cncc(CN3CCCC3)n2)co1` (configuration not stated): the cytotoxicity at 70.5 h was -1.27%.
Consider `Cc1c[nH]c(C2CCCN(Cc3cccc(C(=O)O)c3)C2)n1` (configuration not stated), for which the cytotoxicity at 70.5 h was -4.03%.
For `Cc1nc(CN2CC(CCCc3ccccn3)(C(=O)N(C)C)C2)co1`, the cytotoxicity at 70.5 h was -1.84%.
Regarding `Cc1nc(CN2CCC2(CCCc2ccccn2)C(=O)N(C)C)co1` (configuration not stated), the cytotoxicity at 70.5 h is -5.18%.
Then `CN(C)C(=O)C1(CCCc2ccccn2)CCN1Cc1nccn1C` (configuration not stated), with -6.27%; and `O=C(c1cc[nH]n1)N1CCCC1c1cncc(CN2CCOCC2)n1` (configuration not stated), with -4.87%.
The figure for `Cn1cc(-c2ccc(C3CCCCN3Cc3cccnc3)cn2)cn1` (configuration not stated) is -1.27%; for `Cc1cn[nH]c1C1CCCN1Cc1ccc(F)c(F)c1` (configuration not stated) it is -0.872%; for `CCn1cc(S(=O)(=O)N2CCCCCC2c2cc(C)on2)cn1` (configuration not stated) it is 2.09%.
Then `Cc1cc2ccncc2n1CC1(O)CCN(C(=O)c2ccccn2)CC1`, with -1.41%.
For the compound `Cc1nc(C)c(C(=O)N2Cc3ccccc3OCC2Cn2ccnc2)s1` (configuration not stated), the cytotoxicity at 70.5 h was 2.25%.
The figure for `CN1C[C@@H](C(=O)N2CCCOCC2)[C@@]2(CCc3ccccc3C(=O)N2)C1` is -1.32%; for `Cc1nc(C)c(C(=O)N2Cc3ccccc3OCC2Cn2ccnc2)o1` (configuration not stated) it is -1.03%.
For the compound `CC(C(=O)N1CCCCC1)n1nc(-c2cccs2)cc(N)c1=O` (configuration not stated), the cytotoxicity at 70.5 h is 14.9%.
With `O=C(Cn1cnc2cc3c(cc21)OCCCO3)NC1CCCC1`, the cytotoxicity at 70.5 h amounted to 25.4%.
As to `O=C(Cn1cnc2cc3c(cc21)OCCCO3)NC1CCCCC1`, the cytotoxicity at 70.5 h was -1.58%.
On to `CN1CCc2nc3cc(C(=O)NCc4cccs4)ccc3c(=O)n2CC1`, for which the cytotoxicity at 70.5 h is -2.15%.
Consider `COCCNC(=O)c1ccc2c(=O)n3c(nc2c1)CCN(C)CC3`, for which the cytotoxicity at 70.5 h was determined as 7.41%.
Take `CC(C)N1CCCC(Cc2nccnc2Cl)CC1` (configuration not stated): the cytotoxicity at 70.5 h was 0.246%.
For the compound `CN(C)c1ncc(I)c(C2CCCCN2S(C)(=O)=O)n1` (configuration not stated), the cytotoxicity at 70.5 h was -3.68%.
With `CCn1nc(C)c(CN(Cc2ccccn2)Cc2ccccc2Cl)c1C`, the cytotoxicity at 70.5 h was found to be 10.9%.
Then `CN(C)Cc1cnc(CC2CCN(CCc3ccccc3)CC2)cn1`, with 0.387%; and `COc1ccccc1CN1CCC(Cc2cnc(CN(C)C)cn2)CC1`, with -2.82%; and `O=C(CN1C[C@H]2C[C@H](OCc3ccccc3)C[C@H]2C1)N1CCOCC1`, with -4.18%.
Consider `Cc1nn(C)cc1S(=O)(=O)N[C@@H]1CCC[C@@H](n2ccnc2)[C@@H]1O`, for which the cytotoxicity at 70.5 h was -6.03%.
The figure for `Cc1ccnn1CCC(=O)N1CCCC[C@@]2(C)[C@@H]1CCC(=O)N2C` is -4.62%; for `CC(C)N1CCCC(Cc2nccnc2Cl)C1` (configuration not stated) it is -4.45%.
Then `CN1CC(=O)N(C2CCNCC2)Cc2c(NCC(C)(C)C)ncnc21`, with -9.73%; and `CC(C)CC(=O)Nc1ccc(Oc2ccsc2C(=O)O)cc1`, with 1.56%.
On to `COCC(=O)Nc1ccc(Oc2ccsc2C(=O)O)cc1`, for which the cytotoxicity at 70.5 h is -6.01%.
For `COc1ncc(C(F)(F)F)c(C(=O)O)c1Cl`, the cytotoxicity at 70.5 h was determined as 24.8%.
Then `COC(=O)c1ccc(-c2cc(C(F)(F)F)cc(N(C)C)n2)cc1`, with -6.66%.
For `COc1cc(OC)cc(-c2cc(N)on2)c1`, the cytotoxicity at 70.5 h is -7.45%.
Turning to `CCOC(=O)[C@H]1CNC[C@@H]1C(=O)OCC`, the cytotoxicity at 70.5 h came to 3.89%.
`OCc1cn(Cc2cccc(F)c2)nn1`: the cytotoxicity at 70.5 h is -12.4%.
The figure for `CC(O)c1cn(Cc2ccc(F)cc2)nn1` (configuration not stated) is -4.74%.
For the compound `OC1(CNc2ccccc2)CCNCC1`, the cytotoxicity at 70.5 h was -7.62%.
In the case of `N#Cc1cc2cc(Cl)cnc2nc1O`, the cytotoxicity at 70.5 h was -12%.
In the case of `O=C(CC(SC1CCCCC1)C(=O)O)c1ccc(Cl)cc1` (configuration not stated), the cytotoxicity at 70.5 h was -4.64%.
Consider `CCOc1ccc(C(=O)CC(SC2CCCCC2)C(=O)O)cc1` (configuration not stated), for which the cytotoxicity at 70.5 h is -6.29%.
As to `CNc1nc2ncc(Cl)cc2cc1C#N`, the cytotoxicity at 70.5 h was -2.12%.
As for `COc1ccc(NCC2(O)CCNCC2)cc1OC`, the cytotoxicity at 70.5 h is 6.97%.
Take `CCSCCN1CCCN(S(C)(=O)=O)CC1`: the cytotoxicity at 70.5 h was -2.21%.
`CCOc1nnc(CN(CC)CC(=O)NC(C)(C)C)s1`: the cytotoxicity at 70.5 h came out at 10.3%.
As for `N#CCCn1cnc2c(Br)cc(Br)cc2c1=O`, the cytotoxicity at 70.5 h is -3.9%.
Regarding `Cc1cc(F)c2c(c1)CCCN2Cc1cc(=O)n(C)c(=O)n1C`, the cytotoxicity at 70.5 h was -8.84%.
For the compound `CC(C)c1nnc(NC(=O)N(C)Cc2ccc(C(N)=O)cc2)s1`, the cytotoxicity at 70.5 h is -4.8%.
With `CC(C)c1nnc(NC(=O)N(C)Cc2ccncc2)s1`, the cytotoxicity at 70.5 h was -9.39%.
For the compound `CCN(CC1CCOC1)C(=O)NCc1nnc2n1CCCCC2` (configuration not stated), the cytotoxicity at 70.5 h was -7.23%.
For the compound `CCOc1nnc(CN(CC)CC(=O)Nc2c(F)cccc2F)s1`, the cytotoxicity at 70.5 h is -5.55%.
As for `Cc1ccc(S(=O)(=O)N2CCN(CCC(N)=O)CC2)s1`, the cytotoxicity at 70.5 h is -7.66%.
For the compound `CCN(CC1CCOC1)C(=O)NCc1nnc2n1CCC2` (configuration not stated), the cytotoxicity at 70.5 h is -5.15%.
Consider `COc1ccc(N2CCC(N(C)C(=O)Nc3ccncc3)CC2)cc1`, for which the cytotoxicity at 70.5 h is 0.31%.
The figure for `Cc1ccc(F)c2c1CCCN2Cc1cc(=O)n(C)c(=O)n1C` is -7.78%; for `CN(C(=O)Nc1cccnc1)C1CCN(c2ccc(Cl)cc2)CC1` it is 0.04%; for `Cn1cc(C2CCCN2C(=O)c2cnc(-c3ccco3)s2)cn1` (configuration not stated) it is -4.49%.
Regarding `CCn1cc(S(=O)(=O)Nc2nc3c(s2)CC(C)CC3)cn1` (configuration not stated), the cytotoxicity at 70.5 h is -6.65%.
In the case of `Cc1ccccc1-n1cnc(Cl)c1CO`, the cytotoxicity at 70.5 h is 18.4%.
As to `c1ccc(-c2nc(CCNCc3cccnc3)co2)cc1`, the cytotoxicity at 70.5 h was -4.67%.
With `Cc1cc(NCCSc2nccn2C)n2ncnc2n1`, the cytotoxicity at 70.5 h was found to be 17.1%.
As to `c1ccc(-c2nc(CCNCc3ccncc3)co2)cc1`, the cytotoxicity at 70.5 h is -5.13%.
As for `COc1ccc(Br)cc1SCCS(C)(=O)=O`, the cytotoxicity at 70.5 h is -4.19%.
Regarding `Cc1ccc2c(c1)OC(C)CN2C(=O)c1c[nH]c(C)cc1=O` (configuration not stated), the cytotoxicity at 70.5 h is 2.52%.
Then `CC1c2ccc(F)cc2CCN1C(=O)c1[nH]c(=O)[nH]c(=O)c1N` (configuration not stated), with -1.6%.
The figure for `CC1c2cc(F)ccc2CCN1C(=O)c1[nH]c(=O)[nH]c(=O)c1N` (configuration not stated) is -2.24%.
Consider `Cc1[nH]ccc1C(=O)N1CCOCC12CCCC2`, for which the cytotoxicity at 70.5 h is -0.873%.
In the case of `O=C(c1ccc[nH]1)N1CCOCC12CCCC2`, the cytotoxicity at 70.5 h worked out at 30.2%.
Consider `Cc1ccc(C(=O)Nc2ccc3c(c2)N(C)CCN(C)C3)c(=O)[nH]1`, for which the cytotoxicity at 70.5 h was -7.32%.
For `Cc1cccc(CN2CCCCC2c2n[nH]cc2-c2cc(C)no2)c1` (configuration not stated), the cytotoxicity at 70.5 h was -6.6%.
Take `CN1C[C@@H](C(=O)N(C)C)[C@@]2(CCc3ccccc3C(=O)N2)C1`: the cytotoxicity at 70.5 h was 0.772%.
Take `c1cnc(Nc2cc(CCC3CCCNC3)ccn2)cn1` (configuration not stated): the cytotoxicity at 70.5 h is -4.31%.
In the case of `CC(C)N1CCCCC1c1nc(N(C)C)ncc1I` (configuration not stated), the cytotoxicity at 70.5 h came to 23.9%.
Then `Cc1nc(C)c(C(=O)N2Cc3ccccc3OCC2CN(C)C)o1` (configuration not stated), with 1.45%.
For the compound `COc1ccccc1CN(CCCn1ccnc1)CC1CCOC1` (configuration not stated), the cytotoxicity at 70.5 h was -4.43%.
Regarding `CC(C)OCCCN(Cc1cnn(C)c1)Cc1ccccn1`, the cytotoxicity at 70.5 h was 21.5%.
On to `Fc1ccccc1CN(CCCn1ccnc1)CC1CCOC1` (configuration not stated), for which the cytotoxicity at 70.5 h was found to be 9.07%.
